Patent publication US20060188904A1, “Biosensors having single reactant components immobilized over single electrodes and methods of making and using thereof” (The Regents of the University of California, priority 2003, published 2006)
Values joined by “and” are separate entries in the source; they are usually repeats but may differ in a detail not shown here. Identical values can stand only once.

Columns and labels:
rat osteoblasts = assay: Single osteoblast sensor: response time to chemical analytes; format: cell-based; details: at the concentration printed under each value (EDTA 280 ppm, ethanol 190 ppm, peroxide 25 ppm, pyrethroids 890 ppm), preliminary results
Protocol: The experiments in Example 2 were conducted on mammalian cells, rat osteoblasts and neurons (18 day embryonic Wistar rat) having highly excitable cell membranes. […] A unique response of each cell type to each agent was determined. […] Here, two out of four agents are discussed. Additionally, the response of each cell type to a mixture of the four agents was determined in order to simulate the real time field conditions. The results obtained for neurons are discussed.
(§1) For example, for the experiments described herein, an experimental platform comprising a 5×5 electrode array on a substrate, a silicone chamber, and a measurement system was used. The micrograph of the fabricated electrode array on a substrate is shown in FIG. 1 with a 5×5 platinum electrode array pattern, electrode diameter of 80 μm and with a 200 μm center to center spacing. Two platinum plated leads (6 μm, thick) from each electrode terminated at two separate electrode pads. The dimensions of the electrode pads were 100 μm×120 μm. The electrode array on the substrate was coated with a permeation polyethylamine (PEI) and collagen with a volume of 200 μl (PEI, 1 mg/ml, Collagen 1X, Sigma, St. Louis, Mo.). The electrode array on the substrate with the aqueous coating of the permeation layer was incubated for about 12 hours prior to the experiment at 37 ° C. and 5% CO2.
The cells were separated and positioned over the electrodes by setting up a gradient AC field using an extracellular positioning system, comprising of a pulse generator and micromanipulators. The AC signal from the pulse generator was fed to the electrode pads of the selected electrodes using the micromanipulators. The extracellular recordings from the cells were amplified and recorded on an oscilloscope. […]
Then fast Fourier transformation (FFT) and wavelet transformation (WT) analysis were used to extract important information from the extracellular action potential (AP) for the neurons. […] Quantitative dose response curves and response times were also obtained for the single cell systems.

single neuron [1] = assay: Single neuron sensor: extracellular electrical response to chemical analytes (FFT/WT analysis, signature pattern vector); details: for Percentage reduction of signal amplitudes from the detection limit to the peak concentration: 5000 ppm to detection limit; for Percentage increase in response time from peak concentration to the sensitivity limits: about 5000 ppm to detection limit; for Response time of a single neuron extracted via WT analysis: at the detection limit; for Detection limit for a single neuron: decrementing concentrations from about 5000 ppm; for Experimentally obtained detection limit (molar): single neuron
Protocol: The experiments in Example 2 were conducted on mammalian cells, rat osteoblasts and neurons (18 day embryonic Wistar rat) having highly excitable cell membranes. […] A unique response of each cell type to each agent was determined. […] Additionally, the response of each cell type to a mixture of the four agents was determined in order to simulate the real time field conditions.
as §1
The cells were separated and positioned over the electrodes by setting up a gradient AC field using an extracellular positioning system, comprising of a pulse generator and micromanipulators. The AC signal from the pulse generator was fed to the electrode pads of the selected electrodes using the micromanipulators. The extracellular recordings from the cells were amplified and recorded on an oscilloscope. The supply and measurement systems are integrated using general-purpose interface bus (GPIB) control and controlled through LabVIEW (National Instruments, Austin, Tex.).
Then fast Fourier transformation (FFT) and wavelet transformation (WT) analysis were used to extract important information from the extracellular action potential (AP) for the neurons. Specific spectrum power vectors (SSPVs) and the relative spectrum power values (RSPVS) were found for osteoblast. Quantitative dose response curves and response times were also obtained for the single cell systems.
Extracellular signals from individual neurons due to the action of a specific chemical analyte may be analyzed further to understand the chemical type and the cellular response relationship. Here, single neuron based sensor's response and its sensitivity is determined by statistical reconstruction and enhancement of the acquired experimental data. Each chemical was characterized by a unique SPV obtained from the integrated processing of the modified extracellular action potential in the frequency domain (FFT) as well as the time domain (WT).
Integrated signal processing yielded an SPV specific to every chemical analyte. The SPV provides unique functional data corresponding to the physiological state of a single neuron due to the action of a particular analyte at a specific concentration. Each SPV comprises of certain frequency states, which are analyte specific and having maximum relative amplitudes that are generated concurrently in the sensing cycle; these correspond to the neuron's modified stable burst rate. Extracellular signal amplitudes greater than about 50 μV are considered to be accurate measures of the cell response due to a specific chemical analyte as the magnitude of signals due to non-specific interactions and noise signals are smaller than this value.

single neuron [2] = details: estimated theoretically, literature; cited from earlier work
single neuron [3] = details: hydrogen peroxide added after ethanol, both at their detection limits
Description: The detection limits for individual chemicals act as the basis for determining the concentration of the specific chemical analytes used in cascaded sensing. Addition of the first chemical analyte approaching its sensitivity limit results in the acquisition of modified extracellular potential pertaining to the specific chemical analyte. The use of the chemical analyte close to its detection limit leads to the dissipation as well as metabolization of the chemical analyte within a single sensing cycle (180 seconds) that result in the reduction of the chemical analyte concentration below the detection threshold. […] Administration of the second chemical analyte results in a specific modification based on the latter.
The concentrations of the chemicals used were at their detection limits.

Structure (SMILES) | Response time of osteoblast cells (rat osteoblasts) [sec per] | Percentage reduction of signal amplitudes from the detection limit to the peak concentration (single neuron [1]; n=15) | Percentage increase in response time from peak concentration to the sensitivity limits (single neuron [1]; n=15) | Response time of a single neuron extracted via WT analysis (single neuron [1]; n=15) | Detection limit for a single neuron (single neuron [1]; n=15) | Percentage reduction of signal amplitude per 1000 ppm (single neuron [1]; n=15) | Experimentally obtained detection limit (molar) (single neuron [1]) | Lowest single neuron sensitivity, lowest concentration determined by existing methods (single neuron [2]) | Eigen vectors of the SPV / modified firing frequency (Example 2) (single neuron [1]; control burst rate 626 Hz, unchanged for varying concentrations, n=15) [Hz] | Frequency of firing of the neuron / eigen values of the SPV (description of FIGS. 4-7) (single neuron [1]; low and high frequency modes, hydrogen peroxide within 30 seconds of addition) | High frequency eigen vector after cascaded addition (single neuron [3]) [Hz]
O=C(O)CN(CCN(CC(=O)O)CC(=O)O)CC(=O)O [EDTA, ethylenediaminetetraacetic acid] | 0.14 | about 67% | about 1.8% | about 0.27 second | about 180 ppm | about 10.4%±0.11% | about 3.42×10^−13 M | about 15 pM |  |  | 
CCO [ethanol] | 0.71 | about 52% | about 1.6% | about 0.21 second | about 9 ppm | about 8.2%±0.12% | about 2.17×10^−12 M | about 25 μM | 314 | 315 Hz and 627 Hz and 314 Hz and 626 Hz | 
OO [hydrogen peroxide] | 0.42 | about 38% | about 1.8% | about 0.07 second | about 19 ppm | about 7.8%±0.14% | about 2.94×10^−12 M | about 15 nM |  |  | 775
